Here are results for 22 compounds from patent US20230031406A1, “COMPOUNDS AND COMPOSITIONS FOR TREATING CONDITIONS ASSOCIATED WITH NLRP ACTIVITY” (Novartis AG, priority 2018, published 2023).

Each structure is given as a SMILES string. Like-named read-outs stand apart in the source and are kept apart here. Bounds are passed on as bounds.

The term IC50 denotes the concentration at which inhibition is half-maximal.

The subject of the assay is PMA-differentiated THP-1 cells. Briefly: IL-1β production in PMA-differentiated THP-1 cells stimulated with gramicidin (hTHP-1 assay containing 2% fetal bovine serum; Procedures 1 and 2). To be noted: 2% fetal bovine serum. Type of assay: cell-based, human. In a few lines: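 Compound titrations in 0.37% final DMSO were added to THP-1 cells that had been plated after 16-18 h PMA treatment, 50,000 per well in 2% FBS. One hour later the cells received gramicidin (5 μM, 2 h) and were centrifuged. HTRF detected IL-1β in the collected supernatants.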

Setting [1] is: Homo sapiens, THP-1, Table B2, class symbols, read-out: hTHP-1 IC50.
The mark [2] stands for this setting: Table B1, class symbols, read-out: Average IC50 of compounds in hTHP-1 assay: hTHP-1 IC50.
Setting [3] is: Table B2, class symbols, read-out: hTHP-1 IC50.

As to `CC(C)c1c(C2CC2)nc2c(c1NC(=O)N=S(N)(=O)c1cc(C(C)(C)O)cs1)CCC2` (stereo not shown) [Compound 667, N′-((2-cyclopropyl-3-isopropyl-6,7-dihydro-5H-cyclopenta[b]pyridin-4-yl)carbamoyl)-4-(2-hydroxypropan-2-yl)thiophene-2-sulfonimidamide], the 50% inhibitory concentration (IC50) under setting [1] lay within 200 to 1000 nM. Regarding `CC1CCc2c1nc1c(c2NC(=O)N=S(N)(=O)c2ncc(C(C)(C)O)s2)CCC1` (stereo not shown) [Compound 140, 5-(2-hydroxypropan-2-yl)-N′-((3-methyl-1,2,3,5,6,7-hexahydrodicyclopenta[b,e]pyridin-8-yl)carbamoyl)thiazole-2-sulfonimidamide], under setting [2], the 50% inhibitory concentration (IC50) was 40 to 200 nM.

As to `Cc1nc2c(c(NC(=O)N=S(N)(=O)c3ncc(C(C)(C)O)s3)c1C1CC1)CCC2` (single isomer, unassigned) [Compound 618a, (S) or (R)-N′-((3-cyclopropyl-2-methyl-6,7-dihydro-5H-cyclopenta[b]pyridin-4-yl)carbamoyl)-5-(2-hydroxypropan-2-yl)thiazole-2-sulfonimidamide], the concentration for half-maximal inhibition (IC50) (Homo sapiens, THP-1, Table B2, numeric bounds, read-out: hTHP-1 IC50) was > 30000 nM.

For the compound `CC(C)(O)c1cc(F)c(S(N)(=O)=NC(=O)Nc2c3c(nc(C(F)(F)F)c2C2CC2)CCC3)s1` (single isomer, unassigned) [Example 659, (R) or (S)-N′-((3-cyclopropyl-2-(trifluoromethyl)-6,7-dihydro-5H-cyclopenta[b]pyridin-4-yl)carbamoyl)-3-fluoro-5-(2-hydroxypropan-2-yl) thiophene-2-sulfonimidamide], the half-inhibitory concentration (IC50) (Table B3, hTHP-1 assay, class symbols, read-out: IC50) was 200 to 1000 nM.

Turning to `CC(C)(O)c1cnc(S(N)(=O)=NC(=O)Nc2c3c(nc4c2CCC4(C)C)CCC3)s1` (single isomer, unassigned) [Compound 686b, (R) or (S)-N′-((3,3-dimethyl-1,2,3,5,6,7-hexahydrodicyclopenta [b,e]pyridin-8-yl)carbamoyl)-5-(2-hydroxypropan-2-yl)thiazole-2-sulfonimidamide], under setting [3], the IC50 is 5000 to 30000 nM. Turning to `Cc1nc2c(c(NC(=O)N=S(N)(=O)c3cnc(C(C)(C)O)s3)c1C)CCC2` (stereo not shown) [Compound 138, N′-((2,3-dimethyl-6,7-dihydro-5H-cyclopenta[b]pyridin-4-yl)carbamoyl)-2-(2-hydroxypropan-2-yl)thiazole-5-sulfonimidamide], the concentration for half-maximal inhibition (IC50) (Homo sapiens, THP-1, Table B1, class symbols, read-out: Average IC50 of compounds in hTHP-1 assay: hTHP-1 IC50) is 5000 to 30000 nM. Consider `Cc1c(C(C)C)nc2c(c1NC(=O)N=S(N)(=O)c1cc(C(C)(C)O)cs1)CCC2` (stereo not shown) [Compound 681, 4-(2-Hydroxypropan-2-yl)-N′-((2-isopropyl-3-methyl-6,7-dihydro-5H-cyclopenta[b]pyridin-4-yl)carbamoyl)thiophene-2-sulfonimidamide], for which, under setting [1], the IC50 was in the range of 40 to 200 nM. Consider `CCc1cc(NC(=O)N=S(N)(=O)c2cnc(C(C)(C)O)s2)c2c(n1)CCC2` (single isomer, unassigned) [Compound 137b, (S) or (R)-N′-((2-ethyl-6,7-dihydro-5H-cyclopenta[b]pyridin-4-yl)carbamoyl)-2-(2-hydroxypropan-2-yl)thiazole-5-sulfonimidamide], for which the IC50 (Table B1, numeric bounds, read-out: Average IC50 of compounds in hTHP-1 assay: hTHP-1 IC50) is > 30000 nM. As for `CC1CCc2c1nc1c(c2NC(=O)N=S(N)(=O)c2cn(C(C)C)cn2)CCC1` (single isomer, unassigned) [Compound 660a, (R, S) or (S, S) or (S, R) or (R, R)-1-Isopropyl-N′-((3-metliyl-1,2,3,5,6,7-hexahydrodicyclopenta [b,e]pyridin-8-yl)carbamoyl)-1H-imidazole-4-sulfonimidamide], the IC50 (Table B2, numeric bounds, read-out: hTHP-1 IC50) was > 30000 nM. In the case of `Cc1sc(S(N)(=O)=NC(=O)Nc2c3c(nc4c2CCC4)CCC3)cc1C(C)(C)O` (single isomer, unassigned) [Compound 107b, (S) or (R)-N′-((1,2,3,5,6,7-hexahydrodicyclo-penta[b,e]pyridin-8-yl)carbamoyl)-4-(2-hydroxypropan-2-yl)-5-methylthiophene-2-sulfonimidamide], under setting [2], the IC50 is 5000 to 30000 nM. `CC(C)c1nc2c(cc1NC(=O)N=S(N)(=O)c1cnc(C(C)(C)O)s1)CCC2` (single isomer, unassigned) [Example 701, (R) or (S)-2-(2-Hydroxypropan-2-yl)-N′-((2-isopropyl-6,7-dihydro-5H-cyclopenta[b]pyridin-3-yl)carbamoyl)thiazole-5-sulfonimidamide]: the half-maximal inhibitory concentration (IC50) (Homo sapiens, THP-1, Table B3, hTHP-1 assay, class symbols, read-out: IC50) lay in the range of 5000 to 30000 nM. Turning to `CCn1cc(F)c(S(N)(=O)=NC(=O)Nc2c(C)c(CC(F)(F)F)nc3c2CCC3)n1` (single isomer, unassigned) [Example 718, (S) or (R)-1-ethyl-4-fluoro-N′-((3-methyl-2-(2,2,2-trifluoroethyl)-6,7-dihydro-5H-cyclopenta[b]pyridin-4-yl)carbamoyl)-1H-pyrazole-3-sulfonimidamide], under “Homo sapiens, THP-1, Table B3, hTHP-1 assay, numeric values, read-out: IC50”, the half-maximal inhibitory concentration (IC50) was > 30000 nM. Turning to `Cc1c(C(F)(F)F)nc2c(c1NC(=O)N=S(N)(=O)c1cnc(C(C)(C)O)s1)CCC2` (single isomer, unassigned) [Compound 661a, (R) or (S)-2-(2-Hydroxypropan-2-yl)-N′-((3-methyl-2-(trifluoromethyl)-6,7-dihydro-5H-cyclopenta[b]pyridin-4-yl)carbamoyl)thiazole-5-sulfonimidamide], the concentration for half-maximal inhibition (IC50) under setting [3] was 200 to 1000 nM. Regarding `CC(C)(O)c1ncc(S(N)(=O)=NC(=O)Nc2c3c(nc4c2CCC4F)CCC3)s1` (single isomer, unassigned) [Compound 183a, (R,R) or (R,S)-N′-((3-fluoro-1,2,3,5,6,7-hexahydrodicyclo-penta[b,e]pyridin-8-yl)carbamoyl)-2-(2-hydroxypropan-2-yl)thiazole-5-sulfonimidamide], the IC50 under setting [2] was in the range of 1000 to 5000 nM.

`CC(C)(O)c1cc(F)c(S(N)(=O)=NC(=O)Nc2c3c(nc4c2CCC42CC2)CCC3)s1` (single isomer, unassigned) [Compound 101a, (S) or (R)-3-fluoro-5-(2-hydroxypropan-2-yl)-N′-((1′,5′,6′,7′-tetrahydro-2′H-spiro[cyclopropane-1,3′-dicyclopenta[b,e]pyridin]-8′-yl)carbamoyl)thiophene-2-sulfonimidamide]: under setting [2], the IC50 lay within 1000 to 5000 nM.

With `CC(C)(O)c1cc(F)c([S@](N)(=O)=NC(=O)Nc2c3c(nc(C4CC4)c2C2CC2)CCC3)s1` [Compound 727b], under setting [1], the IC50 was 40 to 200 nM.

Consider `CC(C)c1c(C2CC2)nc2c(c1NC(=O)N=S(N)(=O)c1cc(C(C)(C)O)cs1)CCC2` (single isomer, unassigned) [Compound 667a, (S) or (R)-N′-((2-cyclopropyl-3-isopropyl-6,7-dihydro-5H-cyclopenta[b]pyridin-4-yl)carbamoyl)-4-(2-hydroxypropan-2-yl)thiophene-2-sulfonimidamide], for which, under setting [3], the half-inhibitory concentration (IC50) was in the range of 5000 to 30000 nM.

Turning to `CC1(C)CCc2c1nc1c(c2NC(=O)N=S(N)(=O)c2sc(C(C)(O)CO)cc2F)CCC1` (single isomer, unassigned) [Compound 699b, (S, R) and (R, R) or (R, S) and (S, S)-5-(1,2-Dihydroxypropan-2-yl)-N′-((3,3-dimethyl-1,2,3,5,6,7-hexahydrodicyclopenta [b,e]pyridin-8-yl)carbamoyl)-3-fluorotliophene-2-sulfoni midamide], the IC50 under setting [3] is 8 to 40 nM. `CCc1c(C(F)(F)F)nc2c(c1NC(=O)N=S(N)(=O)c1nn(CC)cc1F)CCC2` (single isomer, unassigned) [Example 771, (R) or (S)-1-ethyl-N′-((3-ethyl-2-(trifluoromethyl)-6,7-dihydro-5H-cyclopenta[b]pyridin-4-yl)carbamoyl)-4-fluoro-1H-pyrazole-3-sulfonimidamide]: under “Table B4, class symbols, read-out: hTHP-1 IC50”, the IC50 lay within 200 to 1000 nM. As for `CCC1CCc2c1nc1c(c2NC(=O)N=S(N)(=O)c2sc(C(C)(C)O)cc2F)CCC1` (single isomer, unassigned) [Compound 671d, (R, R) or (R, S) or (S, R) or (S, S)-N′-((3-ethyl-1,2,3,5,6,7-hexahydrodicyclopenta [b,e]pyridin-8-yl)carbamoyl)-3-fluoro-5-(2-hydroxypropan-2-yl) thiophene-2-sulfonimidamide], the IC50 under setting [3] was in the range of 200 to 1000 nM. Turning to `CC1CCc2c1nc1c(c2NC(=O)N=S(N)(=O)c2sc(C(C)(C)O)nc2CO)CCC1` (single isomer, unassigned) [Compound 168ab, (S,R) or (S,S)-4-(hydroxymethyl)-2-(2-hydroxypropan-2-yl)-N′-((3-methyl-1,2,3,5,6,7-hexahydrodicyclo-penta[b,e]pyridin-8-yl)carbamoyl)thiazole-5-sulfonimidamide], where the note is “Homo sapiens, THP-1, Table B1, numeric bounds, read-out: Average IC50 of compounds in hTHP-1 assay: hTHP-1 IC50”, the half-inhibitory concentration (IC50) is > 30000 nM. `CC1(C)CCc2c1nc1c(c2NC(=O)N=S(N)(=O)c2cnc(C(C)(O)CO)s2)CCC1` (single isomer, unassigned) [Compound 201f, (R, S) and (S, S) or (S, R) and (R, R)-2-(1.2-Dihydroxvpropan-2-yl)-N′-((3,3-dimethyl-1,2,3.5.6.7-hexahydrodicyclopenta [b,e]pvridin-8-yl)carbamoyl)thiazole-5-sulfonimidamide]: under setting [3], the IC50 fell in the range of 5000 to 30000 nM.
